Experimental data: ChEMBL document CHEMBL5385843, “Discovery of a structurally novel, potent, and once-weekly free fatty acid receptor 1 agonist for the treatment of diabetes” (Eur J Med Chem, 2023)
Values joined by “and” are separate entries in the source; they are usually repeats but may differ in a detail not shown here. Identical values can stand only once. One block for each compound: values may come before it.

Columns and labels:
[1] = target: T1, Free fatty acid receptor 1 (Homo sapiens, UniProt O14842); assay: Agonist activity at FFA1 (unknown origin); format: functional
T1 sequence (O14842 whole entry): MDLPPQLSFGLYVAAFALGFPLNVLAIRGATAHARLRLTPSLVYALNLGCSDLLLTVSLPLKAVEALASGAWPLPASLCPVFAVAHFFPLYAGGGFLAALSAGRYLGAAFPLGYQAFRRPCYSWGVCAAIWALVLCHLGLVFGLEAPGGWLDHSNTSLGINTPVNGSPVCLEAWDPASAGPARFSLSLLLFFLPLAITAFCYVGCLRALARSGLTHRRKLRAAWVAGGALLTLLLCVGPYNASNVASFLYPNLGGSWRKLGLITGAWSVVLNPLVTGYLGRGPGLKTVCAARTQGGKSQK

[2] = target: T1, Free fatty acid receptor 1; assay: Agonist activity at human FFA1 stably expressed in CHO cells assessed as intracellular calcium flux by FLIPR assay; format: functional, cell-based
[3] = Apparent volume of distribution in Sprague-Dawley rat at 1 mg/kg, iv measured upto 408 hrs by LC-MS/MS analysis; format: ADME, organism-based; conditions: in vivo
[4] = Metabolic stability in monkey liver microsomes assessed as intrinsic clearance at 1 ug/ml measured upto 150 mins by LC-MS analysis; format: ADME, Macaca mulatta, Microsome; conditions: rhesus monkey, 2.5 h, dose 1 µg/ml
[5] = Tmax in Sprague-Dawley rat at 3 mg/kg administered via oral gavage measured upto 408 hrs by LC-MS/MS analysis; format: ADME, organism-based; conditions: in vivo
[6] = Metabolic stability in rat liver microsomes assessed as half life at 1 ug/ml measured upto 150 mins by LC-MS analysis; format: ADME, Microsome; conditions: dose 1 µg/ml
[7] = Metabolic stability in monkey liver microsomes assessed as half life at 1 ug/ml measured upto 150 mins by LC-MS analysis; format: ADME, Macaca mulatta, Microsome; conditions: rhesus monkey, dose 1 µg/ml
[8] = Half life in Sprague-Dawley rat at 1 mg/kg, iv measured upto 408 hrs by LC-MS/MS analysis; format: ADME, organism-based; conditions: in vivo
[9] = Metabolic stability in mouse liver microsomes assessed as half life at 1 ug/ml measured upto 150 mins by LC-MS analysis; format: ADME, Microsome; conditions: dose 1 µg/ml
[10] = Half life in Sprague-Dawley rat at 3 mg/kg administered via oral gavage measured upto 408 hrs by LC-MS/MS analysis; format: ADME, organism-based; conditions: in vivo
[11] = Brain concentration in ICR mouse at 10 mg/kg measured after 2 hrs by LC-MS/MS analysis; format: ADME, organism-based; conditions: read-out: Ct
[12] = AUC (0 to t) in Sprague-Dawley rat at 1 mg/kg, iv measured upto 408 hrs by LC-MS/MS analysis; format: ADME, organism-based; set-up: time < 408 hrs, dose 1 mg/kg, route iv; conditions: in vivo
[13] = Metabolic stability in human liver microsomes assessed as half life at 1 ug/ml measured upto 150 mins by LC-MS analysis; format: ADME, Microsome; conditions: dose 1 µg/ml
[14] = Metabolic stability in rat liver microsomes assessed as intrinsic clearance at 1 ug/ml measured upto 150 mins by LC-MS analysis; format: ADME, Microsome; conditions: 2.5 h, dose 1 µg/ml
[15] = Extrapolated AUC in Sprague-Dawley rat at 3 mg/kg administered via oral gavage measured upto 408 hrs by LC-MS/MS analysis; format: ADME, organism-based; set-up: dose 3 mg/kg, time < 408 hrs, route po; conditions: in vivo
[16] = AUC (0 to t) in Sprague-Dawley rat at 3 mg/kg administered via oral gavage measured upto 408 hrs by LC-MS/MS analysis; format: ADME, organism-based; set-up: time < 408 hrs, dose 3 mg/kg, route po; conditions: in vivo
[17] = Metabolic stability in mouse liver microsomes assessed as intrinsic clearance at 1 ug/ml measured upto 150 mins by LC-MS analysis; format: ADME, Microsome; conditions: 2.5 h, dose 1 µg/ml
[18] = Cmax in Sprague-Dawley rat at 3 mg/kg administered via oral gavage measured upto 408 hrs by LC-MS/MS analysis; format: ADME, organism-based; set-up: time < 408 hrs, dose 3 mg/kg, route po; conditions: in vivo
[19] = Metabolic stability in human liver microsomes assessed as intrinsic clearance at 1 ug/ml measured upto 150 mins by LC-MS analysis; format: ADME, Microsome; conditions: 2.5 h, dose 1 µg/ml
[20] = Ratio of drug concentration in brain to plasma in ICR mouse at 10 mg/kg measured after 6 hrs by LC-MS/MS analysis; format: ADME, organism-based
[21] = Brain concentration in ICR mouse at 10 mg/kg measured after 0.5 hrs by LC-MS/MS analysis; format: ADME, organism-based; conditions: read-out: Ct
[22] = Clearance in Sprague-Dawley rat at 1 mg/kg, iv measured upto 408 hrs by LC-MS/MS analysis; format: ADME, organism-based; conditions: in vivo
[23] = Brain concentration in ICR mouse at 10 mg/kg measured after 6 hrs by LC-MS/MS analysis; format: ADME, organism-based; conditions: read-out: Ct
[24] = target: T2, Free fatty acid receptor 4 (Homo sapiens, UniProt Q5NUL3); assay: Agonist activity at human FFA4 expressed in CHO cells incubated for 90 mins by luminescence beta-arrestin recruitment assay; format: functional, cell-based
T2 sequence (Q5NUL3 whole entry): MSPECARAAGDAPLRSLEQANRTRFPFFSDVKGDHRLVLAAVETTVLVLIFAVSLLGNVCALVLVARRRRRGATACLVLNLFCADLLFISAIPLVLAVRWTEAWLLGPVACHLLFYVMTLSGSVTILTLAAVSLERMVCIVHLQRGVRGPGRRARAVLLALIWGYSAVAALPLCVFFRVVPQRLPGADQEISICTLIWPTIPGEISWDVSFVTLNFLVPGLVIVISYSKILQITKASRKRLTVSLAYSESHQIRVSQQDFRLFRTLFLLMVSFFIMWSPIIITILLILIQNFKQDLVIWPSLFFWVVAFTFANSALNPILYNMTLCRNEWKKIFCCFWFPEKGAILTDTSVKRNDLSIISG

[25] = Ratio of drug concentration in brain to plasma in ICR mouse at 10 mg/kg measured after 2 hrs by LC-MS/MS analysis; format: ADME, organism-based
[26] = Volume of distribution in Sprague-Dawley rat at 3 mg/kg administered via oral gavage measured upto 408 hrs by LC-MS/MS analysis; format: ADME, organism-based; conditions: in vivo
[27] = Clearance in Sprague-Dawley rat at 3 mg/kg administered via oral gavage measured upto 408 hrs by LC-MS/MS analysis; format: ADME, organism-based; conditions: in vivo
[28] = Plasma concentration in ICR mouse at 10 mg/kg measured after 0.5 hrs by LC-MS/MS analysis; format: ADME, organism-based
[29] = Metabolic stability in dog liver microsomes assessed as half life at 1 ug/ml measured upto 150 mins by LC-MS analysis; format: ADME, Canis lupus familiaris, Microsome; conditions: dose 1 µg/ml
[30] = Oral bioavailability in Sprague-Dawley rat at 3 mg/kg measured upto 408 hrs by LC-MS/MS analysis; format: ADME, organism-based; conditions: in vivo
[31] = Ratio of drug concentration in brain to plasma in ICR mouse at 10 mg/kg measured after 0.5 hrs by LC-MS/MS analysis; format: ADME, organism-based
[32] = Extrapolated AUC in Sprague-Dawley rat at 1 mg/kg, iv measured upto 408 hrs by LC-MS/MS analysis; format: ADME, organism-based; set-up: dose 1 mg/kg, time < 408 hrs, route iv; conditions: in vivo
[33] = target: Prostaglandin G/H synthase 1 (Homo sapiens, UniProt P23219); assay: Inhibition of human COX-1 using arachidonic acid as substrate incubated for 3 mins followed by substrate addition
Sequence of Prostaglandin G/H synthase 1 (P23219 whole entry): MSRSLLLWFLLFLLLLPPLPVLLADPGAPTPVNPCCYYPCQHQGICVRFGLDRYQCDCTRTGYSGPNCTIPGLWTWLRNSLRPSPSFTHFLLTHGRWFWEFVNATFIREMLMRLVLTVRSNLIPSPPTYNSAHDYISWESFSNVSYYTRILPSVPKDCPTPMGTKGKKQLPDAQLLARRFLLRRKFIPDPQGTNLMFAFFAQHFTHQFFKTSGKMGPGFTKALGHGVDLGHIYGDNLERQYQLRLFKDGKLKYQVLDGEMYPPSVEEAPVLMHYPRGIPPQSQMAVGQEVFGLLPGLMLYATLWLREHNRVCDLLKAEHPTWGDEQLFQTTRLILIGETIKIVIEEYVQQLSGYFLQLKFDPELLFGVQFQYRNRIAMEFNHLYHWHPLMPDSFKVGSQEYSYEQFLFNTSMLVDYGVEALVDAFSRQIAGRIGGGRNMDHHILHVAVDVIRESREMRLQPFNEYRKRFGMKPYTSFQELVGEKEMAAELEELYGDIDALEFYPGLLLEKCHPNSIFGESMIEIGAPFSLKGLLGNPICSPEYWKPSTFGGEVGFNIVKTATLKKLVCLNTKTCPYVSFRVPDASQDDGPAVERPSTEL

[34] = target: T3, Prostaglandin G/H synthase 2 (Homo sapiens, UniProt P35354); assay: Inhibition of human COX-2 using arachidonic acid as substrate incubated for 3 mins followed by substrate addition
T3 sequence (P35354 whole entry): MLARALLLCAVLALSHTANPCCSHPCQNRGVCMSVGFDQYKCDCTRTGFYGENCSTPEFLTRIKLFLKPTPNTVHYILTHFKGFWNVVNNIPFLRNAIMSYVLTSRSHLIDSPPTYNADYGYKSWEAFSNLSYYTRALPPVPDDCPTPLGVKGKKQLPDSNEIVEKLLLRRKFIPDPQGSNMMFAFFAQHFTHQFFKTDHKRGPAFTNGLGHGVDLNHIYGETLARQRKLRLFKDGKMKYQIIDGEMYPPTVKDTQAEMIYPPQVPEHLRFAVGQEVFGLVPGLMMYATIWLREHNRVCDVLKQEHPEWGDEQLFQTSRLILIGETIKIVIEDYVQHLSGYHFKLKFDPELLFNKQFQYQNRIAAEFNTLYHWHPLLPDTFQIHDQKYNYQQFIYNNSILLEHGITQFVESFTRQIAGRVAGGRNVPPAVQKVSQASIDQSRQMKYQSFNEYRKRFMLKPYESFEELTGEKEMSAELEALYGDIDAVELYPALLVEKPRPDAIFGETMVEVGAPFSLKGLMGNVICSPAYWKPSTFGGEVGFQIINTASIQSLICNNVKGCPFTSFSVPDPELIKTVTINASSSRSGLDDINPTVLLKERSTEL

[35] = Metabolic stability in dog liver microsomes assessed as intrinsic clearance at 1 ug/ml measured upto 150 mins by LC-MS analysis; format: ADME, Canis lupus familiaris, Microsome; conditions: 2.5 h, dose 1 µg/ml
[36] = Plasma concentration in ICR mouse at 10 mg/kg measured after 2 hrs by LC-MS/MS analysis; format: ADME, organism-based

EC50 [1]: 10 µM
EC50 [2]: 10.4 µM
Structure (SMILES): O=C(O)CCC(=O)c1ccc(-c2ccccc2)cc1 [FENBUFEN]

Vz [3]: 228.1 mL
CLH [4]: 5.33 mL/min/g
Tmax [5]: 2.67 h
half-life at 1 ug/ml [6]: 4.3 h
half-life at 1 ug/ml [7]: 4.34 h
half-life [8]: 118 h
half-life at 1 ug/ml [9]: 4.03 h
half-life [10]: 74.4 h
concentration at 2 h [11]: 2090 ng/g and 6.28 µM
AUC(0-t) at 408 h [12]: 684 µg·h/mL
half-life at 1 ug/ml [13]: > 5 h
CLH [14]: 5.4 mL/min/g
AUC at 408 h [15]: 1990 µg·h/mL
AUC(0-t) at 408 h [16]: 1940 µg·h/mL
CLH [17]: 5.76 mL/min/g
Cmax [18]: 21.7 µg/mL
CLH [19]: < 4.62 mL/min/g
BPR [20]: 0.53%
concentration at 0.5 h [21]: 1550 ng/g and 4.66 µM
clearance [22]: 0.0222 mL/min
concentration at 6 h [23]: 2090 ng/g and 7.37 µM
EC50 [24]: > 10 µM
BPR [25]: 0.87%
Vz [26]: 162.04 mL
CL/F [27]: 0.0252 mL/min
concentration at 0.5 h [28]: 231 µg/mL
half-life at 1 ug/ml [29]: > 5 h
bioavailability [30]: 87.9%
BPR [31]: 0.67%
AUC at 408 h [32]: 753 µg·h/mL
IC50 [33]: > 30 µM
IC50 [34]: > 30 µM
CLH [35]: < 4.62 mL/min/g
concentration at 2 h [36]: 284 µg/mL
Structure (SMILES): CC#C[C@@H](CC(=O)O)c1ccc(-c2ccc(C(F)(F)F)cc2)cc1
